From PubChem BioAssay (NCI)
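Cells were grown in 96-well plates and exposed to each compound for 48 hours at five concentrations; endpoints were interpolated linearly between bracketing concentrations, or set to the highest concentration if not reached. TGI marks complete inhibition of growth.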

Columns and labels:
Test in all cases: growth of human tumour cells (NCI), 48 h
CAKI-1 renal = test system: CAKI-1 renal
T-47D breast = test system: T-47D breast
SR leukemia = test system: SR leukemia
SF-295 CNS = test system: SF-295 CNS
OVCAR-8 ovarian = test system: OVCAR-8 ovarian
DU-145 prostate = test system: DU-145 prostate
OVCAR-3 ovarian = test system: OVCAR-3 ovarian
SN12C renal = test system: SN12C renal
K-562 leukemia = test system: K-562 leukemia
PC-3 prostate = test system: PC-3 prostate

Structure (SMILES)	TGI (CAKI-1 renal) [µM]	TGI (T-47D breast) [µM]	TGI (SR leukemia) [µM]	TGI (SF-295 CNS) [µM]	TGI (OVCAR-8 ovarian) [µM]	TGI (DU-145 prostate) [µM]	TGI (OVCAR-3 ovarian) [µM]	TGI (SN12C renal) [µM]	TGI (K-562 leukemia) [µM]	TGI (PC-3 prostate) [µM]
C[Si](C)(c1ccccc1)[C@H]1CCCC=C1CCNC1c2ccccc2CCc2ccccc21	> 100	> 100	> 100	> 100	> 100	> 100	> 100	> 100	> 100	> 100
CC(C)(C)N(Cc1ccc2c(c1)OCO2)C(=O)/C=C\Sc1ccccc1	> 100	> 100	> 100	> 100	> 100	> 100	> 100	> 100	> 100	> 100
CCc1ccccc1NNc1cc(=O)[nH]c(=O)[nH]1	21.5	37.7	> 100	36.2	51.6	> 100	30.8	39	> 100	32.8
Fc1cccc(F)c1C1SCc2nc3ccc(Cl)cc3n21 (stereo not given)	> 100	> 100	> 100	> 100	> 100	> 100	> 100	> 100	> 100	> 100
C[N+]1(CCN[N+]2(C)CCCCC2)CCc2ccccc2C1 (stereo not given)	> 100	> 100	> 100	> 100	> 100	> 100	> 100	> 100	> 100	> 100
CCOc1cc(NC(C)=O)ccc1C(=O)NN1C(=O)CSC1c1ccccc1 (stereo not given)	> 100	> 100	> 100	> 100	> 100	> 100	> 100	> 100	> 100	> 100
O=[N+]([O-])c1ccc(O)c(/C=N/NC(=S)N2CCCCC2)c1	34.4	> 80.1	> 70.2	28.7	4.66	> 52.5	> 100	> 41.9	> 100	> 92.7
